Measurements as given in patent publication EP0981349B1, “5-ALPHA-PREGNAN-3-BETA-OL-20-ONE SULFATE FOR THE TREATMENT OF TUMOURS AND CNS DISEASES” (Wyeth, priority 1997, dated 1998).
Where a name gives a salt, the structure may show the parent alone.

Tests used:
progesterone receptors = target: T1, progesterone receptors (Homo sapiens, UniProt P06401); assay: Stimulation of alkaline phosphatase enzyme activity in T47D cells (progestational activity)
T1 sequence (P06401 1-933): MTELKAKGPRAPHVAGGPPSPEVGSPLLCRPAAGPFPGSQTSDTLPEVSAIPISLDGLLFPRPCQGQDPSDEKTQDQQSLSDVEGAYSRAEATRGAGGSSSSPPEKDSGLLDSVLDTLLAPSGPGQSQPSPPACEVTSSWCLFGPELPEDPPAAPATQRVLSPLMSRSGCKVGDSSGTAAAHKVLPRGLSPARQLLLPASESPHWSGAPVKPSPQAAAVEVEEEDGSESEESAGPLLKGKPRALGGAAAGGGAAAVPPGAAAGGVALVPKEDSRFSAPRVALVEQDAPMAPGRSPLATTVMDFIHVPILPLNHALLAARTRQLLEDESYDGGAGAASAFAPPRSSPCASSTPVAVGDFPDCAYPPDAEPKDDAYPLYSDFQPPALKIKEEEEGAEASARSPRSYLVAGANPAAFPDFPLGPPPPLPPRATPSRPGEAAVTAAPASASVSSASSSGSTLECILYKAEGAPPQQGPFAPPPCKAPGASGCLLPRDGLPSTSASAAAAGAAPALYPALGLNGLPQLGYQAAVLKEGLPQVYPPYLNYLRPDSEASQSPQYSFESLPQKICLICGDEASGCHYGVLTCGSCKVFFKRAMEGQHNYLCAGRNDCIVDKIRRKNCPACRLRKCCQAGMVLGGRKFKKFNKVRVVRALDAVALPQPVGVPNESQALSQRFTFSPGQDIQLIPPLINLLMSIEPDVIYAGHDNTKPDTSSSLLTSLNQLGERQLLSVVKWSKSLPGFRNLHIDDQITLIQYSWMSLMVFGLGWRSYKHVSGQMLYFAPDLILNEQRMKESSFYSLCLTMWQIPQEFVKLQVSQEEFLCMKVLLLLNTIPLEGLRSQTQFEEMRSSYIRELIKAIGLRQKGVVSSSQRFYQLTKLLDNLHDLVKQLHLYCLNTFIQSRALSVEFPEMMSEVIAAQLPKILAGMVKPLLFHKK
Procedure: The progestational activity of a representative compound of this invention (5α-pregnan-3β-ol-20-one 3-sulfate ester sodium salt) was evaluated in an in vitro standard pharmacological test procedure.
In this test procedure, the progestational activity of a compound is quantified based on its stimulation of alkaline phosphatase enzyme activity in T47D cells, a human breast cancer cell line which expresses high levels of progesterone receptors. This is a well established test procedure in which both the progestin receptors and the response stimulated by activated progestin receptors are endogenous to the cells. Cells are pre-conditioned in low serum medium for one day and then treated with test compounds. Alkaline phosphatase activity is measured 24 hr after treatment.

[1] = tested on: potassium channel currents; assay: Whole cell recording of potassium currents from cultured hippocampal neurons; assay type: cell-based; settings: 2 µM, p = 0.0006
Procedure: (§1) Briefly, the following procedure was used.
(§2) Whole cell recording techniques were used to record calcium and potassium currents from cultured hippocampal neurons. The compounds to be evaluated were made fresh each day in a 400 µM ethanol stock solution. The test compounds were diluted in saline to obtain a final concentration of 2 µM. The amplitude of calcium or potassium currents in control, test compound, and washout solutions was measured from at least 10 current traces for each condition. To compensate for rundown of the calcium current with time, control and washout currents were averaged. The current amplitude with drug was divided by the averaged control and washout current to determine the percent change. The means, standard deviations and errors for each test compound were calculated and significance from control was determined using the paired T-Test.

calcium channel currents = assay: Whole cell recording of calcium currents from cultured hippocampal neurons; assay type: cell-based; settings: 2 µM, p = 0.044
Procedure: as §1, §2

With `CC(=O)O[C@]1(C(C)=O)CC[C@H]2[C@@H]3C[C@H](C)C4=CC(=O)CC[C@]4(C)[C@H]3CC[C@@]21C` [medroxyprogesterone acetate, reference compound] the “fold induction of alkaline phosphatase” value (progesterone receptors; t47d cells, 24 h) was 30 - 60 fold.

`CC(=O)[C@H]1CC[C@H]2[C@@H]3CC[C@H]4C[C@@H](OS(=O)(=O)O)CC[C@]4(C)[C@H]3CC[C@]12C` [5α-pregnan-3β-ol-20-one 3-sulfate ester sodium salt] was tested, and the EC50 (progesterone receptors) was 5 µM, the “increased potassium channel currents versus control” value [1] was 21.76 ± 2.40% and the “Calcium channel currents decrease versus control” value (calcium channel currents) was 4.64 ± 1.64%.
